# Measurements from patent publication US5962456A, “N-acylpiperazine derivative, anti-ulcer drug, and antibacterial drug” (Shiseido Co., Ltd., priority 1996, dated 1999).
# Tested on: isolated gastric fundic gland
# Assay: CAP: Acid Secretion Inhibition Test In Vitro ([14C]-aminopyrine uptake)
# Type: cell-based, rabbit (male Japanese White)
# Details: Oryctolagus cuniculus; final concentration 10^-5 M; histamine 10^-5 M; rabbit gastric fundic glands; read-out: CAP acid secretion inhibitory rate
# Description: CAP: Acid Secretion Inhibition Test In Vitro
# The acid secretion inhibitory activity in a cell level is studied. It can also be used for studying the mechanism of the effect. […]
# ii-a) Preparation of Isolated Gastric Fundus Gland Suspension
# First, an isolated gastric fundic gland sample was prepared. Namely, a male Japanese White rabbit (2.5 to 3 kg) was anesthetized to death with Nembutal™ and then the abdomen was incised. Immediately thereafter, the stomach was removed and, after its pyloric and cardiac antrum were severed, incised along its greater curvature into two sheets. The gastric contents adhering to the mucosal surface was washed out with ice-cooled PBS (-) and then carefully washed therein. The gastric wall was spread on a cork board with its mucosal surface facing up and the feed and mucus thereon were completely removed with sterile gauze. The mucosa was separated therefrom by a spatula and then collected in ice-cooled PBS (-). After being washed twice with PBS (-), the mucosa was minced into 2-3 mm^3 pieces by scissors. These pieces were further washed twice with a nutrient solution. […] Into 70 ml of the nutrient solution containing 1 mg/ml of collagenase, minced mucosal pieces were dispersed and intensely stirred in a conical flask with a stirrer at 37° C. for 40 to 60 minutes. During this period, 100% O2 was sprayed on the nutrient solution surface and the pH was appropriately measured such that it was immediately adjusted to pH 7.4, when the value was therebelow, with a base. The nutrient solution was added to the reaction solution so as to attain the total amount of about 200 ml. After being filtered through a mesh, the suspension was divisionally introduced into 50 ml centrifuge tubes and left for 15 minutes such that gastric fundic gland was deposited. The supernatant was repeatedly removed by an aspirator, dispersed in the nutrient solution, and then left such that the gastric fundic gland was washed three times. At this time, without using a pipette, the suspension was alternately introduced into two centrifuge tubes so as to effect dispersion. The number of cells was counted under microscope and adjusted to 1.6×10^6 cells/ml. […]
# ii-b) [^14 C]-aminopyrine Uptake Test
# Then, [^14 C]-aminopyrine uptake test was performed. After an Eppendorf tube was weighed, 10 μl (final concentration: 10^-5 M) of histamine dissolved in the above-mentioned nutrient solution, 10 μl (final concentration: 10^-5 M) of the test compound dissolved in DMSO, and 10 μl (final concentration: 0.05 μCi/ml) of [^14 C]-aminopyrine diluted with the nutrient solution were introduced therein and then 970 μl of the isolated gastric fundic gland suspension prepared above was added thereto. […] After being centrifuged for 30 minutes, 200 μl of its supernatant was collected into a mini-vial, while the rest was removed by an aspirator. The gland pellet was completely dried as the tube with its lid being opened was kept for one night in a drying oven at 80° C. and then the lid was closed and the weight was determined at room temperature. Then 100 μl of 1N KOH was added thereto and the tube with its lid being closed was treated at 60° C. for 1 to 2 hours so as to dissolve the pellet. Then, the contents thereof were transferred to a mini-vial. Into the mini-vial containing the supernatant or gland pellet, 4 ml of Atomlite™ was added and then the radioactivity was measured by a liquid scintillation counter. Here, after the radioactivity of the gland pellet was corrected by using a sample in which 20 mM of NaSCN was added so as to cancel the hydrogen ion concentration gradient, the integration ratio of aminopyrine specifically trapped by the gland pellet was calculated. This experiment was performed in duplicate. […]
# ii-c) Calculation of the Accumulation Rate of Aminopyrine
# Here, its principle will be briefly explained. In the isolated gastric fundic gland, acid is accumulated in a space between its secretory tubule and intraglandular cavity.
smiles,measurement,value
"CC(C)=CCC/C(C)=C/COc1ccc(C(=O)N2CCN(CCNC(=O)c3ccc4c(c3)OCO4)CC2)cc1 [Example 1, 1-(4-geranyloxy)benzoyl-4-[2-(piperonyloylamino)ethyl]piperazine]",inhibition at 10 µM,100%
